US20200079766A1, “MONOCYCLIC OGA INHIBITOR COMPOUNDS” (Janssen Pharmaceutica NV, priority 2016, published 2020)
Where two headings read alike, the source gives them in different places.

Biological target: T1, recombinant human Meningioma Expressed Antigen 5 (MGEA5), also referred to as O-GlcNAcase (OGA) (Homo sapiens, UniProt O60502)
T1 construct: Full length OGA enzyme was purchased at OriGene (cat # TP322411); purchased OriGene TP322411
T1 sequence (O60502 1-916): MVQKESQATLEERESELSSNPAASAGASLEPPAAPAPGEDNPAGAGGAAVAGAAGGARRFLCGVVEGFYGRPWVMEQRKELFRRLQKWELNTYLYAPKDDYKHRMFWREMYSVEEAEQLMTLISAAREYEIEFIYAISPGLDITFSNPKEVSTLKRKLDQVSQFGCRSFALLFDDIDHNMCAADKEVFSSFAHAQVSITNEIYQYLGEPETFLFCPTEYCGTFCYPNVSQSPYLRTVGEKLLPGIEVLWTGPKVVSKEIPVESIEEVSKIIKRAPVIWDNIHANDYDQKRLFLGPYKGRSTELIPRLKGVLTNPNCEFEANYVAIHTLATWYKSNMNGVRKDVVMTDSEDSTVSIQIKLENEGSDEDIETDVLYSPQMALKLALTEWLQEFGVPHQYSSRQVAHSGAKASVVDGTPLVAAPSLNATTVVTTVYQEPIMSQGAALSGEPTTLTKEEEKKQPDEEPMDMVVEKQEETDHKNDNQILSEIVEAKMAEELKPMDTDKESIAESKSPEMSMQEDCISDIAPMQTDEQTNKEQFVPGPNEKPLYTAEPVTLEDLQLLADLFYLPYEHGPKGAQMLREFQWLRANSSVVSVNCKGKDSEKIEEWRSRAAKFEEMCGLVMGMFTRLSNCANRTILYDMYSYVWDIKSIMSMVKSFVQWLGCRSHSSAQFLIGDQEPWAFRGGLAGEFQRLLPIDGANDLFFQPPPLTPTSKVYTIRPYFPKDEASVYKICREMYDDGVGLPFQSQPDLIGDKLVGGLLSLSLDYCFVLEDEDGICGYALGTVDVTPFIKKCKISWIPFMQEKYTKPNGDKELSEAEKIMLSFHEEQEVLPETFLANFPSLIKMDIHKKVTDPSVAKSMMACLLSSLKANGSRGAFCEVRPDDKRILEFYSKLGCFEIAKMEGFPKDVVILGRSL
Assay: OGA biochemical assay: inhibition of FM-GlcNAc hydrolysis, fluorescence; protocol A (10 nM OGA, 1 h) or protocol B (2 nM OGA, 6 h)
Settings: for IC50: read-out: Enzymatic hOGA, pIC50 (converted)
From the text: The assay is based on the inhibition of the hydrolysis of fluorescein mono-3-D-N-Acetyl-Glucosamine (FM-GlcNAc) (Mariappa et al. 2015, Biochem J 470:255) by the recombinant human Meningioma Expressed Antigen 5 (MGEA5), also referred to as O-GlcNAcase (OGA). The hydrolysis FM-GlcNAc (Marker Gene technologies, cat # M1485) results in the formation of ß-D-N-glucosamineacetate and fluorescein. The fluorescence of the latter can be measured at excitation wavelength 485 nm and emission wavelength 538 nm. An increase in enzyme activity results in an increase in fluorescence signal. Full length OGA enzyme was purchased at OriGene (cat # TP322411). The enzyme was stored in 25 mM Tris.HCl, pH 7.3, 100 mM glycine, 10% glycerol at −20° C. Thiamet G and GlcNAcStatin were tested as reference compounds (Yuzwa et al. 2008 Nature Chemical Biology 4:483; Yuzwa et al. 2012 Nature Chemical Biology 8:393). The assay was performed in 200 mM Citrate/phosphate buffer supplemented with 0.005% Tween-20. 35.6 g Na2HPO42H2O (Sigma, # C0759) were dissolved in 1 L water to obtain a 200 mM solution. 19.2 g citric acid (Merck, #1.06580) was dissolved in 1 L water to obtain a 100 mM solution. pH of the sodiumphosphate solution was adjusted with the citric acid solution to 7.2. The buffer to stop the reaction consists of a 500 mM Carbonate buffer, pH 11.0. 734 mg
FM-GlcNAc were dissolved in 5.48 mL DMSO to obtain a 250 mM solution and was stored at −20° C. OGA was used at a 10 nM (protocol A) or 2 nM (protocol B) concentration and FM-GlcNAc at a 100 uM final concentration. Dilutions were prepared in assay buffer.
50 nl of a compound dissolved in DMSO was dispensed on Black Proxiplate™ 384 Plus Assay plates (Perkin Elmer, #6008269) and 3 μl fl-OGA enzyme mix added subsequently. Plates were pre-incubated for 60 min at room temperature and then 2 μl FM-GlcNAc substrate mix added. […] Plates were briefly centrifuged for 1 min at 1000 rpm and incubate at room temperature for 1 h (10 nM OGA, protocol A) or 6 h (2 nM OGA, protocol B). To stop the reaction 5 μl STOP buffer were added and plates centrifuge again 1 min at 1000 rpm. Fluorescence was quantified in the Thermo Scientific Fluoroskan Ascent or the PerkinElmer EnVision with excitation wavelength 485 nm and emission wavelength 538 nm.
For analysis a best-fit curve is fitted by a minimum sum of squares method. From this an IC50 value and Hill coefficient was obtained. High control (no inhibitor) and low control (saturating concentrations of standard inhibitor) were used to define the minimum and maximum values.

[1] = Enzymatic protocol B (2 nM OGA, 6 h)
[2] = Enzymatic protocol A (10 nM OGA, 1 h)

Row | Compound | Emax [1] | IC50 [1] | further results
1 | CC(=O)Nc1ncc(S(=O)(=O)N2CCC(c3ccc(C)nc3)C2)s1 (centres unmarked) [compound 4] | 50.5% |  | 
2 | Cc1cc(C[C@H]2CCCN(Cc3ccc4c(c3)OCO4)C2)cc(C)n1 [compound 146] | 93.5% | 1000 nM | 
3 | CC(=O)Nc1ncc(S(=O)(=O)N2CCCC(Oc3ccnc(C)c3)C2)s1 (centres unmarked) [compound 2] |  |  | Emax [2]: 89%; IC50 [2]: 1050 nM
4 | CC(=O)Nc1ncc(CN2CCCC(COc3cc(C)nc(C)c3)C2)[nH]1 (centres unmarked) [compound 120] | 91.9% | 1230 nM | 
5 | Cc1cc(C[C@H]2CCCN(Cc3nc4ccccc4[nH]3)C2)cc(C)n1 [compound 151] | 2.86% | > 10000 nM | 
6 | Cc1cc(OCC2(F)CCCN(Cc3ccc4nccnc4c3)C2)cc(C)n1 (racemic) [compound 157] | 69% | 2400 nM | 
7 | Cc1cc(C[C@H]2CCN(C(C)c3cc4ccccc4n3C)C2)cc(C)n1 (mixture of isomers) [compound 94] | 30.7% | > 10000 nM | 
8 | CC(=O)Nc1ncc(CN2CCC(Cc3ccc(C(F)(F)F)cn3)C2)s1 (centres unmarked) [compound 68] |  |  | Enzymatic Emax (%) [1]: 101.5%; Enzymatic hOGA; pIC50 [1]: 7.10
9 | Cc1cc(C[C@H]2CCCN(Cc3cc4ccccc4n3C)C2)cc(C)n1 [compound 150] | 20.8% | > 10000 nM | 
10 | Cc1cc(C[C@H]2CCN(Cc3ccc4sc(C)nc4c3)C2)cc(C)n1 [compound 82] |  |  | Enzymatic Emax (%) [1]: 87.4%; Enzymatic hOGA; pIC50 [1]: 5.91
11 | Cc1cc(C[C@H]2CCCN(Cc3nc4ccccc4n3C)C2)cc(C)n1 [compound 153] | 23.9% | > 10000 nM | 
12 | CC(=O)Nc1ncc(S(=O)(=O)N2CCC(c3ccnc(C)c3)C2)s1 (centres unmarked) [compound 3] | 43% | > 10000 nM | Emax [2]: 15%; IC50 [2]: > 10000 nM
13 | Cc1cc(C[C@H]2CCN(C(C)c3nc4ccccc4[nH]3)C2)cc(C)n1 (mixture of isomers) [compound 78] | 8.78% | > 10000 nM | 
14 | Cc1cc(C[C@H]2CCN(Cc3ccc4scnc4c3)C2)cc(C)n1 [compound 83] |  |  | Enzymatic Emax (%) [1]: 87.8%; Enzymatic hOGA; pIC50 [1]: 5.79
15 | CC(=O)Nc1ncc(S(=O)(=O)N2CCCC(Oc3cc(C)nc(C)c3)C2)s1 (centres unmarked) [compound 1] |  |  | Emax [2]: 96.3%; IC50 [2]: 661 nM
16 | CC(=O)Nc1ncc(CN2CCC[C@H](Cc3cc(C)nc(C)c3)C2)n1C [compound 174] | 40.9% | > 10000 nM | 
17 | CC(=O)Nc1ncc(CN2CCCC(c3ccccc3)C2)s1 (centres unmarked) [compound 5, reference compound] |  |  | Emax [2]: 102%; IC50 [2]: 141 nM
18 | Cc1cc(C[C@H]2CCN(Cc3ccc4c(c3)OCO4)C2)cc(C)n1 [compound 99] |  |  | Enzymatic Emax (%) [1]: −6.5%; Enzymatic hOGA; pIC50 [1]: <5
19 | Cc1cc(N[C@H]2CCCN(Cc3ccc4nccnc4c3)C2)cc(C)n1 [compound 12] | 92.9% | 676 nM | 
20 | Cc1cc(CC2CCCN(C(C)c3nc4ccccc4[nH]3)C2)cc(C)n1 (racemic) [compound 149] | 67.6% | 5370 nM | 
21 | Cc1cc(N[C@@H]2CCCN(Cc3ccc4nccnc4c3)C2)cc(C)n1 [compound 10] | 85.6% | 1660 nM | 
22 | CC(=O)Nc1ncc(CN2CCC(Cc3ccc(C(F)(F)F)nn3)C2)s1 (centres unmarked) [compound 65] |  |  | Enzymatic Emax (%) [1]: 100%; Enzymatic hOGA; pIC50 [1]: 7.28
23 | Cc1cc(C[C@H]2CCN(Cc3ccc4c(c3)OCCO4)C2)cc(C)n1 [compound 101] |  |  | Enzymatic Emax (%) [1]: 81.7%; Enzymatic hOGA; pIC50 [1]: 5.8

More lines, main results first:

Row | Emax [1] | IC50 [1] | Compound | further results
24 | 101% | 63.1 nM | CC(=O)Nc1ncc(CN2CCCC(OCc3cc(C)nc(C)c3)C2)s1 (centres unmarked) [compound 21] | 
25 | 100% | 81.3 nM | CC(=O)Nc1ncc(CN2CCC[C@@H](Cc3cc(C)nc(C)c3)[C@H]2C)s1 (single isomer, unassigned) [compound 170] | 
26 |  | 977 nM | CC(=O)Nc1ncc(CN2CCCC(c3cc(C)nc(C)c3)C2)s1 (single isomer, unassigned) [compound 131] | Enzymatic Emax (%) [1]: 85.38%
27 | 100% | 1.74 nM | CC(=O)Nc1ncc(CN2CCC[C@H](Cc3cnc(C)c(C)n3)C2)s1 [compound 124] | 
28 | 101% | 8.32 nM | COc1cc(C[C@H]2CCN(Cc3cnc(NC(C)=O)s3)C2)cc(C)n1 [compound 42] | 
29 | 100% | 45.7 nM | COc1ccc(C)nc1C[C@H]1CCN(Cc2cnc(NC(C)=O)s2)C1 [compound 57] | 
30 | 101% | 63.1 nM | CC(=O)Nc1ncc(CN2CCC(F)C(COc3cc(C)nc(C)n3)C2)s1 (centres unmarked) [compound 163] | 
31 | 94% | 617 nM | CC(=O)Nc1ncc(CN2C[C@@H](F)C[C@@H](COc3cc(C)nc(C)n3)C2)s1 (racemic) [compound 164] | 
32 | 101% | 158 nM | CC(=O)Nc1ncc(CN2CC[C@H](Nc3cc(C)nc(C)c3)C2)s1 [compound 23] | 
33 | 99.7% | 7.76 nM | CC(=O)Nc1ncc(CN2CCC(Cc3cccc(C(C)C)n3)C2)s1 (centres unmarked) [compound 40] | 
34 | 100% | 87.1 nM | CC(=O)Nc1ncc(CN2CCC[C@@H](Cc3cc(C)nc(C)c3)[C@H]2C)s1 (racemic) [compound 169] | 
35 | 100% | 1.7 nM | CC(=O)Nc1ncc(CN2CCC[C@H](Cc3ccc(C)nc3C#N)C2)s1 [compound 125] | 
36 | 48% | > 10000 nM | CC(=O)Nc1ncc(CN2CC(COc3cc(C)nc(C)n3)CC(F)(F)C2)s1 (centres unmarked) [compound 161] | 
37 | 91% | 1050 nM | CC(=O)Nc1ncc(CN2CCC(F)(F)C(COc3cc(C)nc(C)n3)C2)s1 (centres unmarked) [compound 162] | 
38 | 99.8% | 55 nM | CC(=O)Nc1ncc(CN2CC[C@H](Cc3cncnc3)C2)s1 [compound 55] | 
39 | 101% | 13.5 nM | CC(=O)Nc1ncc(CN2CCCC(N(C)c3cc(C)nc(C)c3)C2)s1 (centres unmarked) [compound 32] | 
40 | 100% | 2.24 nM | CC(=O)Nc1ncc(CN2C[C@@H](Cc3cc(C)nc(C)c3)CC[C@@H]2C)s1 (racemic) [compound 165] | 
41 | 101% | 50.1 nM | CC(=O)Nc1ncc(CN2CCC[C@@H](Nc3cc(C)nc(C)c3)C2)s1 [compound 8] | 
42 | 52% | 9550 nM | CC(=O)Nc1ncc(CN2CCC[C@H](Cc3cc(C)nc(C)c3)[C@@H]2C)s1 (single isomer, unassigned) [compound 171] | 
43 | 99.8% | 214 nM | CC(=O)Nc1ncc(CN2CC[C@@H](Nc3cc(C)nc(C)c3)C2)s1 [compound 22] | 
44 | 99% | 56.2 nM | CC(=O)Nc1ncc(CN2CC[C@@H](Cc3ccc(C(F)(F)F)c(C)n3)C2)s1 [compound 36] | 
